Where two headings read alike, the source gives them in different places.
Assays:
[1] = PK parameters in male mice (Table 9); format: in vivo; details: for F: PO 3 mg/kg vs IV 1 mg/kg
Procedure: The pharmacokinetics (PK) of representative Compounds of the Disclosure were evaluated in mice or rats to provide an assessment of their oral bioavaibility. All animal experiments were performed under the guidelines of the University of Michigan Committee for Use and Care of Animals and using an approved animal protocol.

AR protein = target: T1, AR protein (Homo sapiens, UniProt P10275); test: Western blotting of AR protein degradation in VCaP cells; format: cell-based
T1 construct: endogenous in cells; host or cells: VCaP
T1 sequence (P10275 1-920): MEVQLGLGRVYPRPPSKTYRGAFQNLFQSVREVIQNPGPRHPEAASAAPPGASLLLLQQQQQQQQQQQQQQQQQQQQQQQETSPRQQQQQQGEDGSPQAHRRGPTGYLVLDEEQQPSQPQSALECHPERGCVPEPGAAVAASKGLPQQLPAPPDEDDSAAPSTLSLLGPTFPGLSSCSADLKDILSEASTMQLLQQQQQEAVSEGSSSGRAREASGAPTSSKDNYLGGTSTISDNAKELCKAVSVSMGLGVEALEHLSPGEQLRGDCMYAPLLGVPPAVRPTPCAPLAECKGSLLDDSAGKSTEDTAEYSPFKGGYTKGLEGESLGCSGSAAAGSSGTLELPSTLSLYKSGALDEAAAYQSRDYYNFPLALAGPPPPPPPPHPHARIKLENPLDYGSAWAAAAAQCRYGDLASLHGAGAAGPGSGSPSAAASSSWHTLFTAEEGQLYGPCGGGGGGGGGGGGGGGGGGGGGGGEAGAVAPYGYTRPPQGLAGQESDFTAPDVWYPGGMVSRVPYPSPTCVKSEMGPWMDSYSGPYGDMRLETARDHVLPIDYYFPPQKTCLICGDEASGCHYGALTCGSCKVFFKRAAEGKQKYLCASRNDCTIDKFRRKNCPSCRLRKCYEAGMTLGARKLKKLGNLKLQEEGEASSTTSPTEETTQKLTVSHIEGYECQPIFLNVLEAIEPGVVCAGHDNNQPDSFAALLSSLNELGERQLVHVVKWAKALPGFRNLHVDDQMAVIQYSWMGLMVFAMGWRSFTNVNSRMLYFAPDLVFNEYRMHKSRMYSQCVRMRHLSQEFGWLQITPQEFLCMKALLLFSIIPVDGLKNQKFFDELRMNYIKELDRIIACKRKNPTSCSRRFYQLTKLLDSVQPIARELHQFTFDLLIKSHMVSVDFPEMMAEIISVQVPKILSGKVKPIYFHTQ
Procedure: The treated cells were lysed with RIPA buffer. […] GAPDH was used as a loading control.
Bands were quantified with ImageJ software. The relative numbers of each band obtained from normalization with its corresponding GAPDH level were compared with Prism 8 software. The DC50 values were produced from Prism 8, and the DC90 values were calculated with an equation=Bottom+(Top−Bottom)/(1+10^((Log EC50−X)*HillSlope) based on DC50 and Hillslope values.

[2] = ICR, mouse, in vivo, IV 1 mg/kg

Row | SMILES | clearance [1, 2] [mL/min/kg] | AUC(0-t) ([1]; IV 1 mg/kg) [ng·h/mL] | T1/2 ([1]; IV 1 mg/kg) [h] | Vss ([1]; IV 1 mg/kg) [L/kg] | AUC(0-t) ([1]; PO 3 mg/kg) [ng·h/mL] | Cmax ([1]; PO 3 mg/kg) [ng/mL] | T1/2 ([1]; PO 3 mg/kg) [h] | Tmax ([1]; PO 3 mg/kg) [h] | F [1] [%] | % AR protein degradation in VCaP Cells (AR protein; 0.001 μM) [%] | % AR protein degradation in VCaP Cells (AR protein; 0.01 μM) [%] | % AR protein degradation in VCaP Cells (AR protein; 0.1 μM) [%] | % AR protein degradation in VCaP Cells (AR protein; 1 μM) [%] | also measured
1 | CN(c1ccc(C#N)c(Cl)c1)[C@H]1CC[C@H](NC(=O)c2ccc(N3CCC(N4CCN(c5ccc6c(c5)C(=O)N(C5CCC(=O)NC5=O)C6=O)CC4)CC3)cc2)CC1 (some centres unmarked) [compound 230, N-((1r,4r)-4-((3-chloro-4-cyanophenyl)(methyl)amino)cyclohexyl)-4-(4-(4-(2-(2,6-dioxopiperidin-3-yl)-1,3-dioxoisoindolin-5-yl)piperazin-1-yl)piperidin-1-yl)benzamide] | 5.5 | 2857 | 6.6 | 2.73 | 3811 | 251 | 10.6 | 5.3 | 44 | – | – | – | – | –
2 | CCN(c1ccc(C#N)c(Cl)c1)[C@H]1CC[C@H](NC(=O)c2ccc(N3CCC(N4CCN(c5ccc6c(c5)C(=O)N(C5CCC(=O)NC5=O)C6=O)CC4)CC3)cc2)CC1 (some centres unmarked) [compound 231, N-((1r,4r)-4-((3-chloro-4-cyanophenyl)(ethyl)amino)cyclohexyl)-4-(4-(4-(2-(2,6-dioxopiperidin-3-yl)-1,3-dioxoisoindolin-5-yl)piperazin-1-yl)piperidin-1-yl)benzamide] | 31.2 | – | – | – | – | – | – | – | 30 | – | – | – | – | half-life [1, 2]: 4.1 h; AUC(0-t) ([1]; ICR, mouse, in vivo, IV 1 mg/kg, read-out: AUC(0-t)): 539 ng·h/mL; Vd ([1]; ICR, mouse, in vivo, IV 1 mg/kg, read-out: Vss): 4.34 L/kg; half-life ([1]; ICR, mouse, in vivo, PO 3 mg/kg): 2.4 h; AUC(0-t) ([1]; ICR, mouse, in vivo, PO 3 mg/kg, read-out: AUC(0-t)): 492 ng·h/mL; Cmax ([1]; ICR, mouse, in vivo, PO 3 mg/kg, read-out: Cmax): 102 ng/mL; Tmax ([1]; ICR, mouse, in vivo, PO 3 mg/kg, read-out: Tmax): 1.7 h
3 | CN(c1ccc(C#N)c(Cl)c1)[C@H]1CC[C@H](NC(=O)c2ccc(N3CCN(CC4CN(c5ccc6c(c5)C(=O)N(C5CCC(=O)NC5=O)C6=O)C4)CC3)cc2)CC1 (some centres unmarked) [compound 237, N-((1r,4r)-4-((3-chloro-4-cyanophenyl)(methyl)amino)cyclohexyl)-4-(4-((1-(2-(2,6-dioxopiperidin-3-yl)-1,3-dioxoisoindolin-5-yl)azetidin-3-yl)methyl)piperazin-1-yl)benzamide] | – | 1226 | 3.8 | 3.92 | 1111 | 127 | 4.3 | 5.3 | 30 | – | – | – | – | Cl ([1]; IV 1 mg/kg): 13.7 mL/min/kg
4 | CC(O)(CS(=O)(=O)c1ccc(N2CCN(C3CCN(c4ccc5c(c4)C(=O)N(C4CCC(=O)NC4=O)C5=O)CC3)CC2)cc1)C(=O)Nc1ccc(C#N)c(C(F)(F)F)c1 (centres unmarked) [compound 241, N-(4-cyano-3-(trifluoromethyl)phenyl)-3-((4-(4-(1-(2-(2,6-dioxopiperidin-3-yl)-1,3-dioxoisoindolin-5-yl)piperidin-4-yl)piperazin-1-yl)phenyl)sulfonyl)-2-hydroxy-2-methylpropanamide] | – | – | – | – | – | – | – | – | – | 7 | 13 | −2 | 27 | –
5 | CC1(C)C(=O)N(c2ccc(C#N)c(C(F)(F)F)c2)C(=S)N1c1ccc(C(=O)N2CCN(C3CCN(c4ccc5c(c4)C(=O)N(C4CCC(=O)NC4=O)C5=O)CC3)CC2)c(F)c1 (centres unmarked) [compound 242, 4-(3-(4-(4-(1-(2-(2,6-dioxopiperidin-3-yl)-1,3-dioxoisoindolin-5-yl)piperidin-4-yl)piperazine-1-carbonyl)-3-fluorophenyl)-4,4-dimethyl-5-oxo-2-thioxoimidazolidin-1-yl)-2-(trifluoromethyl)benzonitrile] | – | – | – | – | – | – | – | – | – | 14 | 6 | 18 | 31 | –

Source: patent US20230233690A1, “ANDROGEN RECEPTOR PROTEIN DEGRADERS” (THE REGENTS OF THE UNIVERSITY OF MICHIGAN, priority 2020, published 2023)
